Laboratory results taken from patent publication US20050261236A1, “Agonists of A2A adenosine receptors for treatment of diabetic nephropathy” (priority 2004, published 2005).

Key:
[1] = system: STZ (45 mg/kg) Diabetic Model; test: Blood glucose, body weight, systolic blood pressure and urine volume in STZ diabetic model; type: in vivo, rats; details: for 24 h Urine Volume / Body Weight / Systolic Blood Pressure: Diabetes + ATL146e (10 ng/kg/min); for 24 h Urine Volume / Body Weight / Systolic Blood Pressure / Blood Glucose: STZ rats; for Blood Glucose: Diabetes + ATL146e (10 ng/kg/min, osmotic minipump)
Description: Effects of ATL146e on Blood Glucose, Body Weight, Systolic Blood Pressure and Urine Volume in STZ (45 mg/kg) Diabetic Model (n=5 Each Group) Rats were administered ATL146e (10 ng/kg/min) or vehicle by osmotic minipumps prior to the induction of diabetes by STZ […] and followed for up to 6 week. Table 1, below illustrates the effect of STZ on blood glucose, body weight, systolic blood pressure and 24 hours of urine volume as well as the effect of ATL146e. Table 1 summarizes the data for blood glucose (BG), body weight (BW), systolic blood pressure (SBP) and 24 hour urinary volume (UV). Basal BG level was 74±4 mg/dl and increased to 325±4 mg/dl 48 hours after STZ-induction of diabetes and continued to be elevated at 3 and 6 weeks of the study period. Normal rats gained weight as expected. […] There were no significant changes in SBP, 3 weeks after STZ-induction of diabetes between all groups.

[2] = system: STZ-induced diabetic animal model; test: Urinary albumin excretion in diabetes; type: in vivo; details: STZ diabetic rats, 24 hour urine, FIG. 1, in words
Description: Rats were administered ATL146e (10 ng/kg/min) or vehicle by osmotic minipumps prior to the induction of diabetes by STZ (50 mg/kg, iv) and followed for up to 6 week. Table 1, below illustrates the effect of STZ on blood glucose, body weight, systolic blood pressure and 24 hours of urine volume as well as the effect of ATL146e. Urine collections were obtained for 24 hours for measurement of urinary albumin excretion (UAE). UAE rate was 135±35 μg/24 hours at baseline and increased to 1265±500 μg/24 hours and 2921±335 μg/24 hours (P<0.0001) at week 2 and 6, respectively in the diabetic group. […] Results are illustrated in FIG. 1.

diabetic rats = test: Plasma creatinine in diabetes; type: in vivo; details: diabetic rats versus vehicle, FIG. 2, in words
Description: (§1) Rats were administered ATL146e (10 ng/kg/min) or vehicle by osmotic minipumps prior to the induction of diabetes by STZ (50 mg/kg, iv) and followed for up to 6 week. Table 1, below illustrates the effect of STZ on blood glucose, body weight, systolic blood pressure and 24 hours of urine volume as well as the effect of ATL146e. […] Results are illustrated in FIG. 2.

TNF-alpha = test: Urinary and plasma TNF-alpha in diabetes; type: in vivo, rats
Description: as §1, with “ATL146e. Urinary TNF-alpha was not different between groups before STZ treatment.” for “ATL146e.”, “3.” for “2.”

[3] = system: Nitric Oxide End Products (Nitrite and Nitrate) (NOX); test: Urinary nitric oxide end products (nitrite and nitrate) (NOX) in diabetes; type: in vivo; details: diabetic rats, 6 week after STZ induction, FIG. 4, in words
Description: as §1, with “ATL146e. As shown to the right, NOX (as an indicator of endothelial function in the kidney) was decreased in diabetes group at 6 week after STZ induction of diabetes. The decreased in NOX was improved by ATL146e.” for “ATL146e.”, “4.” for “2.”

fibronectin mRNA = test: Fibronectin mRNA (polymerase chain reaction) after induction of diabetes; type: in vivo; details: RNA from diabetic rats, PCR, FIG. 5, in words
Description: RNA from diabetic rats were extracted and subjected to polymerase chain reaction to examine profibrogenic factors. […] Trichrome stain of kidneys from diabetic rats treated with vehicle for 6 weeks (Panels a, c) or ATL146e-10 ng/kg/min (Panels b, d). Magnification ×400. Each panel represents a photograph from a different test animal. Results are illustrated in FIG. 5.

SMILES: CCNC(=O)C1OC(n2cnc3c(N)nc(C#CCC4CCC(C(=O)OC)CC4)nc32)C(O)C1O (stereo not drawn) [ATL146e, 4-{3-[6-Amino-9-(5-ethylcarbamoyl-3,4-dihydroxytetrahydro-furan-2-yl)-9H-purin-2-yl]-prop-2-ynyl}cyclo-hexanecarboxylic acid methyl ester]
- 24 h Urine Volume ([1]; Baseline): 15 ± 2 mL
- Body Weight ([1]; Baseline): 250 ± 13 g
- 24 h Urine Volume ([1]; Week 2): 53 ± 13 mL
- Body Weight ([1]; Week 3): 323 ± 13 g
- Systolic Blood Pressure ([1]; Week 3): 123 ± 4 mmHg
- 24 h Urine Volume ([1]; Week 4): 57 ± 15 mL
- 24 h Urine Volume ([1]; Week 6): 59 ± 23 mL
- Body Weight ([1]; Week 6): 358 ± 24 g
- Systolic Blood Pressure ([1]; Week 6): 114 ± 2 mmHg
- Blood Glucose ([1]; Baseline): 75 ± 5 mg/dL
- Blood Glucose ([1]; Week 1): 311 ± 37 mg/dL
- Blood Glucose ([1]; Week 6): 359 ± 23 mg/dL
- Effect on the increase in SBP observed in diabetes with no treatment ([1]; STZ diabetic rats, after 6 weeks, in words): restored the increase in SBP
- 24 hour urinary volume (UV) ([1]; diabetes+ATL146e group after STZ-induction, throughout study period, in words): increased significantly
- Increase in BW ([1]; diabetes+ATL146e rats versus normal rats of matched age, in words): modest and significant from normal rats
- Effect on urinary albumin excretion (UAE) [2]: minimizes the increase of UAE
- Effect on the increase in plasma creatinine (diabetic rats): significantly restored to normal
- Plasma TNF-alpha (TNF-alpha; all groups, any point of the study periods (data not shown)): not detectable
- Effect on the increase in TNF-alpha (printed: Plasma TNF-alpha) (TNF-alpha; diabetic rats, 6 week after diabetes, FIG. 3, in words): significantly (P<0.05) reduced the increase in Plasma TNF-alpha
- Effect on decreased urinary NOX [3]: restored to normal levels
- Effect on the increase in fibronectin mRNA induced by diabetes (fibronectin mRNA): reduced to levels near control
